The numbers were not newly measured in US20170165627A1, “MICROENCAPSULATION PROCESS” (ENCAPSYS, LLC, priority 2015, published 2017), which cites them from elsewhere.

Values after ≈ are worked out from the molar mass of the structure shown.

For data set [1] the following is noted: temperature at which the initiator has a 10 hour half-life.
For data set [2] the following is noted: @ 25° C.

Consider `N#CC1(N=NC2(C#N)CCCCC2)CCCCC1` [Vazo-88, 1,1′-Azobis(cyclohexanecarbonitrile)], for which, in data set [1], the “10 hour ½ life at (temperature)” value was 88 °C.

Take `CCC(C)(C#N)N=NC(C)(C#N)CC` (centres unmarked) [Vazo-67, 2,2′-azobis(2-methylbutyronitrile)]: the “10 hour ½ life at (temperature)” value in data set [1] was 67 °C.

For “polyethylene glycol (600) diacrylate [SR610]”, the Solubility in water entry in data set [2] is recorded as “Water soluble”.

For the compound “Polyethylene glycol 200 diacrylate [SR259]”, in data set [2], the Solubility in water was 40.68 mg/mL.

Turning to `C=CC(=O)OCCOCCOCC` [SR256, 2-(2-ethoxyethoxy) ethyl acrylate], the Solubility in water in data set [2] was 25.33 mg/mL (≈ 135 mM).

On to `CC(C)(N=NC(C)(C)C(=N)N)C(=N)N.Cl` [Example V-50, 2,2′-azobis(2-amidinopropane) hydrochloride], for which the “10 hour ½ life at (temperature)” value in data set [1] was “½ life at 56 °C”.

On to `CC(C)(N=NC(C)(C)C(=O)NCCO)C(=O)NCCO` [VA-086, 2,2′-Azobis[2-methyl-N-(2-hydroxyethyl)propionamide]], for which, in data set [1], the “10 hour ½ life at (temperature)” value was 10 hour ½ life at 86 °C.

Take “Polyethylene glycol 400 diacrylate [SR344]”: the Solubility in water entry in data set [2] was “Water soluble”.
